Consider one compound from patent publication US20050255537A1, “Method for monitoring treatment with a parathyroid hormone” (priority 1999, published 2005).

The subject of the test is BSAP and PICP serum levels, NTX urine levels. The test can be described thus: Example 3 clinical trial of rhPTH(1-34) vs alendronate: bone markers. Type of test: in vivo, human. The settings on record: alendronate 10 mg per day. Here is the method: • Number of Subjects: • rhPTH(1-34): 73 enrolled, 51 finished. • Alendronate (Fosamax®): 73 enrolled, 57 finished. • Diagnosis and Inclusion Criteria: Women aged 65±8 years, postmenopausal for 19±19 years, selected for a baseline spine bone mineral density of 0.8±0.1 and a T value of −2.2. Dosage and Administration: • Test Product (blinded) • rhPTH(1-34): 40 μg/day, given subcutaneously • Reference (Control) Therapy (blinded) • Alendronate (Fosamax®): 10 mg per patient per day • Duration of Treatment: • rhPTH(1-34): 12-18 months, with follow up from time of withdrawal of drug to 18 months of study. • Alendronate: 12-18 months, with follow up from time of withdrawal of drug to 18 months of study. • Criteria for Evaluation: Spine x-ray, serum biological markers (calcium, bone-specific alkaline phosphatase, procollagen I carboxy-terminal propeptide); urine makers (calcium, N-telopeptide, fir deoxypyridinoline); 1,25-dihydroxyvitamin D; bone mineral density spine, hip, wrist, and total body.
Measures of BSAP, PICP, and NTX levels were determined for each patient through the course of therapy generally according to methods described above in Example 1.

Consider `NCCCC(O)(P(=O)(O)O)P(=O)(O)O` [alendronate, reference compound], for which the PICP serum level entry (FIG. 8) is on record as “a decrease in PICP was observed”. Also, the NTX urine levels result (FIG. 9) was “generally declined slightly during the first 6 months of the study and then remained diminished for the duration of the study”. Moreover, where the note is “after about 4 months, FIG. 7”, the BSAP serum level entry is recorded as “A decrease in BSAP level was observed”.
